Experimental data: patent publication US8476454B2, “IDO inhibitors and methods of use” (Lankenau Institute for Medical Research, priority 2003, dated 2013)

Legend:
[1] = test system: established tumors in MMTVneu "oncomouse" model; experiment: MMTVneu transgenic oncomouse model of breast cancer, change in tumor volume over two weeks; format: in vivo, mouse; settings: for effect on tumor growth: two week course, 1MT 20 mg/day s.c. time-release pellets, cytotoxics i.v. at maximum-tolerated doses
Text: The MMTVneu transgenic “oncomouse” model of breast cancer was used to measure the effects of IDO inhibitors and STIs on tumor pathophysiology. The MMTVneu transgenic mouse develops aggressive tumors of the mammary gland that resemble poorly differentiated human ductal carcinomas. In the MMTVneu mouse model, breast cancer is initiated by tissue-specific expression of a mutant form of the HER-2/Neu gene that is activated frequently in aggressive human breast ductal carcinomas. HER-2 is a member of the EGF-R family of cell surface growth factor receptors. Myc is an obligate downstream effector for HER-2/Neu to drive cancer. Female MMTVneu “oncomice” are mated twice to initiate expression from the mouse mammary tumor virus (wry) promoter which drives transcription of the Neu/HER2 oncogene in mammary tissue. Mammary tumors arise with a penetrance of >90% in this model system by 5 months of age. MMTVneu “oncomice” bearing similarly sized tumors of ˜150 mm^3 were randomly assigned to control or experimental treatment groups. Control mice were implanted with placebo time-release pellets (Innovative Research, Inc., Sarasota, Fla.).
(§1) The time-release pellets are composed of a copolymer which is inert and gradually dissolves and breaks down to a non-toxic substance that remains largely localized during the course of the experiment. […] Two pellets per mouse were implanted to deliver a total dose of 20 mg/day. Therefore, for a 25 g mouse the total dose is 800 mg/kg/day or 280 mg over a 14 day period.
Time-release pellets were introduced subcutaneously on the backs of mice anesthetized by intramuscular injection of ketamin/rompun. Blunt dissection with a hemostat is used to separate the skin from the underlying muscle to create a subcutaneous pocket. One or two biodegradable slow release pellets were implanted within this pocket, rather than directly under the incision in order to prevent mechanical stress and wound dehiscence. The incision was then closed with wound clips.
MMTVneu “oncomice” bearing similarly sized tumors of ˜150 mm^3 were randomly assigned to control or experimental treatment groups. Control mice were implanted with placebo time-release pellets (Innovative Research, Inc., Sarasota, Fla.).
The cytotoxic chemotherapeutic agents were prepared and delivered to the mice as follows. Paclitaxel was dissolved in equal volumes of absolute ethanol and the clinically-used solubilizing agent Cremophor® EL. The solution was sonicated up to 30 minutes and stored as a 20 mg/ml stock solution at 4° C. for up to one week. Before use, this solution was diluted further at 1:5 with sterile physiological saline. Paclitaxel formulated in this manner was administered to mice by a single bolus intravenous (i.v.) injection into the tail vein. Mouse tails can be warmed to facilitate identification and injection of the vein. […] The MTD of cisplatin (1 mg/kg) was obtained as a clinical preparation in saline and delivered as a bolus i.v. injection on the same schedule. Control treated mice received only the Cremophor° EL vehicle formulation without paclitaxel.
Statistical analysis of the tumors of MMTVneu mice after various treatments. Numbers are provided as percent change in tumor volume as compared to the tumor volume prior to treatment.

intracellular IDO = molecular target: T1, intracellular IDO (Homo sapiens, UniProt P14902); experiment: cell-based IDO inhibitor assay, COS-1 cells transiently transfected with IDO cDNA, dose escalation
T1 construct: expressed in transfected cells; host or cells: COS-1 cells, CMV promoter-driven plasmid, Lipofectamine 2000
Experimental: COS-1 cells are transiently transfected with a CMV promoter-driven plasmid expressing IDO cDNA using Lipofectamine 2000 (Invitrogen) as recommended by the manufacturer. […] The following day the wells are washed and new media (phenol red free) containing 20 μg/ml tryptophan is added together with inhibitor.

[2] = molecular target: T2, tryptophan 2,3-dioxygenase (TDO2) (Homo sapiens, UniProt P48775); experiment: cell-based screen, 293/Phoenix cells transiently transfected with TDO (selectivity); settings: IDO versus TDO2
T2 construct: expressed in transfected cells; host or cells: human 293/Phoenix cells
Experimental: FIGS. 27A-27C provide a chart of certain IDO inhibitors, their structures, and their ability to inhibit IDO and TDO activity at a concentration of 250 μM in a cell-based assay.
The candidate compounds were also screened in a cell-based assay (for similar assay see Munn et al. (1999) J. Exp. Med. 189:1363-1372). Briefly, human 293/Phoenix cells were transiently transfected with human IDO or TDO cDNA expression vectors. The candidate compounds were added to the transfected cells at various concentrations. Kynurenine was quantitated in tissue culture media using a fluorescence-based protocol.

human IDO [3] = molecular target: T3, human IDO (Homo sapiens, UniProt P14902); experiment: IDO enzyme assay (kynurenine production), enzyme kinetics for Ki; format: biochemical
Experimental: Data were plotted and analyzed using the Prism4 software package (GraphPad).
This assay is also used to determine Ki values for specific compounds, which is important for the development of SAR (structure activity relationship) around the different compound series.
Kynurenine production can be measured at 1 hour. More extensive enzyme kinetic data can be collected for selected compounds of interest.

human IDO [4] = molecular target: T3, human IDO; experiment: cell-based screen, 293/Phoenix cells transiently transfected with human IDO, kynurenine in media
[5] = test system: tumor growth in a mouse model; settings: Friberg et al. 2002; U.S. Pat. No. 6,482,416; cited from earlier work
[6] = HPLC analysis of mouse serum for compound level; format: in vivo; settings: 2×140 mg 1MT pellets implanted subcutaneously, 3 days, male FVB mice
Text: Protein was removed by TCA precipitation.

[7] = time-release pellets, manufacturer's specifications; cited from earlier work
allogenic conceptus = experiment: allogeneic conceptus rejection in mice; format: in vivo, mouse; settings: 20 mg/day from two time-release pellets; unpublished results
Experimental: as §1, with “period. Steady-state levels were reached within 12-24 hours and are maintained throughout the entire period based on the manufacturer's specifications.” for “period.”

IDO = settings: cited from earlier work; for potency ranking as IDO inhibitor (literature): Peterson et al. 1993, 1994
[8] = compared to the tumor volume prior to treatment, two weeks

T2 sequence (P48775 whole entry): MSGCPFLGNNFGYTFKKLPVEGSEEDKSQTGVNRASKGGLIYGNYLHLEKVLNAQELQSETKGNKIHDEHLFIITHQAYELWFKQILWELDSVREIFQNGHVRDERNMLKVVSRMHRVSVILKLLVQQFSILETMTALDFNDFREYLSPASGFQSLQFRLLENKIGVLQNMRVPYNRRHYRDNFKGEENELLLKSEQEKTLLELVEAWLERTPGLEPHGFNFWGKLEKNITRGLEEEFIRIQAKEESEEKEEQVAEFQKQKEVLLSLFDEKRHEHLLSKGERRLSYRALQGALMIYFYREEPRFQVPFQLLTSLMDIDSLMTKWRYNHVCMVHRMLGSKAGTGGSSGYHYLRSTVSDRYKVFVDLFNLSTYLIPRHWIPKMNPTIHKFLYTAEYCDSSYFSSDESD
T3 sequence (P14902 whole entry): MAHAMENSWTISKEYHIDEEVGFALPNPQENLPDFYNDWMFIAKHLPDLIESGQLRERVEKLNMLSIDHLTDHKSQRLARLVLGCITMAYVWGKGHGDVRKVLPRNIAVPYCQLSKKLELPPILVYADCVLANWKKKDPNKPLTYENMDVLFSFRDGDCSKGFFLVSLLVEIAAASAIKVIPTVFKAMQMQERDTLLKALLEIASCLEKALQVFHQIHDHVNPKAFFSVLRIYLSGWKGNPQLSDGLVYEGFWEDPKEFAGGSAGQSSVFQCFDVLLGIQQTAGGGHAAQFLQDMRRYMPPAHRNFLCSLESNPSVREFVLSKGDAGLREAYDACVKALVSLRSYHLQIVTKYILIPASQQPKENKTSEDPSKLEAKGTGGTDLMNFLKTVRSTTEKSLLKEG
T1 sequence (P14902 whole entry): as above

For `CC[C@H](C)[C@@H](CO[C@@H](Cc1ccccc1)C(=O)N[C@@H](CCS(C)(=O)=O)C(=O)OC(C)C)NC[C@@H](N)CS` [L-744,832], the “effect on tumor growth” value [1] was “retarded but did not block tumor growth”.
With `CN1C(=O)C(Cc2c[nH]c3ccccc23)NC1=S` (centres unmarked) [MTH-Trp, 3-(N-methyl-thiohydantoin)-indole] the EC50 (intracellular IDO; COS-1 cells expressing IDO, 5 hours, 20 μg/ml tryptophan) was 12.9 µM, the “potency against intracellular IDO relative to 1MT” value (intracellular IDO; compared with 1MT) was about 20 fold and the “selectivity over tryptophan 2,3-dioxygenase (TDO2)” value (“selectivity” for short) [2] was “significant selectivity”. The “potency of direct IDO enzyme inhibition relative to 1MT” value (human IDO [3]; compared with 1MT) was “about 3 fold”, the Ki (human IDO [3]; human IDO, global nonlinear regression of enzyme kinetic data, read-out: Best fit values of Ki) was 11.4 µM and the “inhibition of IDO activity relative to 1MT” value (human IDO [4]; at a concentration of 250 μM, compared with 1MT) was 2.7 times. For the same compound, the “potency ranking among screened compounds” value (human IDO [4]; cell-based screen) was “most potent of these inhibitors”.
For `Cn1cc(CC(N)C(=O)O)c2ccccc21` (racemic) [1MT, 1-methyl-DL-tryptophan], the “effect on tumor growth (literature)” value [5] is given as “only retarded and did not prevent tumor growth”, the “1MT level in serum” value [6] is given as about 100 µM and the “time to steady-state levels” value [7] is given as 12 to 24 h. The allogenic conceptus rejection (allogenic conceptus) was “effective at eliciting allogenic conceptus rejection”.
In the case of `CCCCc1cc2c(cn1)[nH]c1ccccc12` [3-butyl-β-carboline], the “potency ranking as IDO inhibitor (literature)” value (IDO) is given as “most active derivative”.
For `C=CCN1C(=O)C(Cc2c[nH]c3ccccc23)NC1=S` (centres unmarked) [N-allyl, 3-(N-allyl-thiohydantoin)-indole], the “selectivity” value [2] was “significant selectivity”.
With `O=C1C(Cc2c[nH]c3ccccc23)NC(=S)N1c1ccccc1` (centres unmarked) [N-phenyl, 3-(N-phenyl-thiohydantoin)-indole] the “selectivity” value [2] was “significant selectivity”.
For `Nc1cc2ccccc2cc1C(=O)O` [3-amino-2-naphthoic acid], the “potency ranking as IDO inhibitor (literature)” value (IDO) is listed as “most potent IDO inhibitor”.
In the case of `c1ccc2c(c1)[nH]c1sncc12` [brassilexin], the “mode of IDO inhibition (literature)” value (IDO; Peterson et al. 1993) is given as “noncompetitive inhibitor of IDO”.
For `CC(=O)O[C@H]1C(=O)[C@@]2(C)[C@H]([C@H](OC(=O)c3ccccc3)[C@]3(O)C[C@H](OC(=O)[C@H](O)[C@@H](NC(=O)c4ccccc4)c4ccccc4)C(C)=C1C3(C)C)[C@]1(OC(C)=O)CO[C@@H]1C[C@@H]2O` [paclitaxel], the “25% Percentile percent change in tumor volume” value [1, 8] was 40.25%, the “75% Percentile percent change in tumor volume” value [1, 8] was 247.6% and the “Maximum percent change in tumor volume” value [1, 8] was 360.8%. The “Mean percent change in tumor volume” value [1, 8] was 139.4%, the “Median percent change in tumor volume” value [1, 8] was 130.4% and the “Minimum percent change in tumor volume” value [1, 8] was 20%. The “effect on tumor growth” value [1] was “retarded but did not block tumor growth”.
With `N.N.[Cl][Pt][Cl]` [cisplatin] the “Maximum percent change in tumor volume” value [1, 8] was 255.6%, the “Mean percent change in tumor volume” value [1, 8] was 91.35% and the “Median percent change in tumor volume” value [1, 8] was 40%. For the same compound, the “Minimum percent change in tumor volume” value [1, 8] was −26.53% and the “effect on tumor growth” value [1] was “retarded but did not block tumor growth”.
